Measured values from the NIST ThermoML archive (doi:10.1016/j.fluid.2005.07.017).
Numbers after ± are expanded uncertainties.

Test: xn = mol fraction of the nth substance listed
Settings: Liquid, Vibrating tube method

c1ccsc1 [thiophene] + O=C=O
Settings	mass density [kg/m3]
332.85 K, 13009 kPa, x2 = 0.199	1012.87 ± 0.43
332.85 K, 13971 kPa, x2 = 0	1030.09 ± 0.44
332.85 K, 14005 kPa, x2 = 0.199	1014.1 ± 0.43
332.85 K, 15006 kPa, x2 = 0	1031.04 ± 0.44
332.85 K, 15042 kPa, x2 = 0.199	1015.31 ± 0.43
332.85 K, 15990 kPa, x2 = 0	1032.01 ± 0.44
332.85 K, 16037 kPa, x2 = 0.199	1016.53 ± 0.43
332.85 K, 17034 kPa, x2 = 0.199	1017.71 ± 0.43
332.85 K, 17050 kPa, x2 = 0	1033.03 ± 0.44
332.85 K, 17976 kPa, x2 = 0	1033.88 ± 0.44
332.85 K, 18013 kPa, x2 = 0.199	1018.85 ± 0.43
332.85 K, 19004 kPa, x2 = 0.199	1019.98 ± 0.43
332.85 K, 19018 kPa, x2 = 0	1034.92 ± 0.44
332.85 K, 20016 kPa, x2 = 0.199	1021.13 ± 0.43
332.93 K, 10438 kPa, x2 = 0.9217	603.48 ± 1.4
332.93 K, 11001 kPa, x2 = 0.9217	635.42 ± 1.1
332.93 K, 12001 kPa, x2 = 0.9217	673.08 ± 0.95
332.93 K, 13005 kPa, x2 = 0.9217	700.08 ± 0.83
332.93 K, 13949 kPa, x2 = 0.9217	720.24 ± 0.76
332.93 K, 15012 kPa, x2 = 0.9217	738.73 ± 0.71
332.93 K, 16019 kPa, x2 = 0.9217	754.17 ± 0.68
332.93 K, 17014 kPa, x2 = 0.9217	767.1 ± 0.65
332.93 K, 18009 kPa, x2 = 0.9217	778.74 ± 0.63
332.93 K, 18964 kPa, x2 = 0.9217	789.26 ± 0.61
332.93 K, 20027 kPa, x2 = 0.9217	798.89 ± 0.6
332.93 K, 21018 kPa, x2 = 0.9217	807.65 ± 0.59
332.93 K, 22031 kPa, x2 = 0.9217	815.99 ± 0.59
332.93 K, 23019 kPa, x2 = 0.9217	823.51 ± 0.57
332.93 K, 23954 kPa, x2 = 0.9217	830.07 ± 0.56
332.93 K, 25005 kPa, x2 = 0.9217	836.64 ± 0.55
332.96 K, 6987 kPa, x2 = 0.3818	977.03 ± 0.43
332.96 K, 8041 kPa, x2 = 0.3818	979.02 ± 0.43
332.96 K, 9012 kPa, x2 = 0.3818	980.85 ± 0.43
332.96 K, 10018 kPa, x2 = 0.3818	982.65 ± 0.43
332.96 K, 11007 kPa, x2 = 0.3818	984.44 ± 0.43
332.96 K, 12018 kPa, x2 = 0.3818	986.2 ± 0.43
332.96 K, 13030 kPa, x2 = 0.3818	987.96 ± 0.43
332.96 K, 13998 kPa, x2 = 0.3818	989.61 ± 0.43
332.96 K, 14969 kPa, x2 = 0.3818	991.25 ± 0.43
332.96 K, 16045 kPa, x2 = 0.3818	993.04 ± 0.42
332.96 K, 17024 kPa, x2 = 0.3818	994.61 ± 0.42
332.96 K, 18020 kPa, x2 = 0.3818	996.22 ± 0.42
332.96 K, 19050 kPa, x2 = 0.3818	997.85 ± 0.42
333.04 K, 9091 kPa, x2 = 0.6996	929.67 ± 0.44
333.04 K, 10017 kPa, x2 = 0.6996	932.84 ± 0.61
333.04 K, 11036 kPa, x2 = 0.6996	936.19 ± 0.59
333.04 K, 11989 kPa, x2 = 0.6996	939.22 ± 0.56
333.04 K, 13024 kPa, x2 = 0.6996	942.4 ± 0.54
333.04 K, 14004 kPa, x2 = 0.6996	945.28 ± 0.53
333.04 K, 14904 kPa, x2 = 0.6996	947.84 ± 0.52
333.04 K, 16043 kPa, x2 = 0.6996	951.03 ± 0.51
333.04 K, 17013 kPa, x2 = 0.6996	953.62 ± 0.5
333.04 K, 18048 kPa, x2 = 0.6996	956.36 ± 0.5
333.04 K, 19011 kPa, x2 = 0.6996	958.88 ± 0.73
333.15 K, 101 kPa, x2 = 0	1014.58 ± 0.44
342.66 K, 5097 kPa, x2 = 0.199	988.63 ± 0.43
342.66 K, 6031 kPa, x2 = 0.199	989.99 ± 0.43
342.66 K, 7084 kPa, x2 = 0.199	991.48 ± 0.43
342.66 K, 8010 kPa, x2 = 0.199	992.78 ± 0.43
342.66 K, 9020 kPa, x2 = 0.199	994.19 ± 0.43
342.66 K, 10077 kPa, x2 = 0.199	995.61 ± 0.43
342.66 K, 11049 kPa, x2 = 0.199	996.93 ± 0.43
342.66 K, 11932 kPa, x2 = 0.199	998.15 ± 0.43
342.66 K, 13009 kPa, x2 = 0.199	999.54 ± 0.43
342.66 K, 13997 kPa, x2 = 0.199	1000.84 ± 0.43
342.66 K, 14996 kPa, x2 = 0.199	1002.14 ± 0.43
342.66 K, 16043 kPa, x2 = 0.199	1003.48 ± 0.43
342.66 K, 17018 kPa, x2 = 0.199	1004.66 ± 0.43
342.66 K, 18018 kPa, x2 = 0.199	1005.93 ± 0.43
342.66 K, 19016 kPa, x2 = 0.199	1007.17 ± 0.43
342.66 K, 20032 kPa, x2 = 0.199	1008.42 ± 0.43
342.69 K, 9071 kPa, x2 = 0.5661	923.94 ± 0.44
342.69 K, 10000 kPa, x2 = 0.5661	926.85 ± 0.44
342.69 K, 11013 kPa, x2 = 0.5661	929.94 ± 0.44
342.69 K, 11994 kPa, x2 = 0.5661	932.85 ± 0.44
342.69 K, 13024 kPa, x2 = 0.5661	935.81 ± 0.44
342.69 K, 13996 kPa, x2 = 0.5661	938.48 ± 0.43
342.69 K, 15008 kPa, x2 = 0.5661	941.2 ± 0.43
342.69 K, 16016 kPa, x2 = 0.5661	943.82 ± 0.43
342.69 K, 17021 kPa, x2 = 0.5661	946.37 ± 0.43
342.69 K, 18030 kPa, x2 = 0.5661	948.87 ± 0.43
342.69 K, 19004 kPa, x2 = 0.5661	951.23 ± 0.43
342.77 K, 1039 kPa, x2 = 0	1004.75 ± 0.44
342.77 K, 2072 kPa, x2 = 0	1005.93 ± 0.44
342.77 K, 3033 kPa, x2 = 0	1007.02 ± 0.44
342.77 K, 4023 kPa, x2 = 0	1008.17 ± 0.44
342.77 K, 5027 kPa, x2 = 0	1009.26 ± 0.44
342.77 K, 6033 kPa, x2 = 0	1010.36 ± 0.44
342.77 K, 7008 kPa, x2 = 0	1011.44 ± 0.44
342.77 K, 7998 kPa, x2 = 0	1012.5 ± 0.44
342.77 K, 9005 kPa, x2 = 0	1013.59 ± 0.44
342.77 K, 10000 kPa, x2 = 0	1014.65 ± 0.44
342.77 K, 10963 kPa, x2 = 0	1015.65 ± 0.44
342.77 K, 12009 kPa, x2 = 0	1016.72 ± 0.44
342.77 K, 13023 kPa, x2 = 0	1017.82 ± 0.44
342.77 K, 13928 kPa, x2 = 0	1018.74 ± 0.44
342.77 K, 15009 kPa, x2 = 0	1019.83 ± 0.44
342.77 K, 15998 kPa, x2 = 0	1020.79 ± 0.44
342.77 K, 17025 kPa, x2 = 0	1021.8 ± 0.44
342.77 K, 17995 kPa, x2 = 0	1022.8 ± 0.44
342.77 K, 19013 kPa, x2 = 0	1023.79 ± 0.44
342.77 K, 20001 kPa, x2 = 0	1024.73 ± 0.44
342.91 K, 7074 kPa, x2 = 0.3818	959.84 ± 0.43
342.91 K, 7993 kPa, x2 = 0.3818	961.78 ± 0.43
342.91 K, 8982 kPa, x2 = 0.3818	963.81 ± 0.43
342.91 K, 10027 kPa, x2 = 0.3818	965.93 ± 0.43
